PubChem BioAssay (NCI)
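All cell lines were grown in 96-well plates and treated with compound for 48 hours. Definition used: TGI = concentration required for complete inhibition of growth.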

Columns and labels:
Assay in all cases: growth of human tumour cells (NCI), 48 h
HCT-15 colon = system: HCT-15 colon
KM12 colon = system: KM12 colon
SNB-75 CNS = system: SNB-75 CNS
OVCAR-4 ovarian = system: OVCAR-4 ovarian
MDA-MB-435 = system: MDA-MB-435
HT29 colon = system: HT29 colon
HOP-92 NSCLC = system: HOP-92 NSCLC
A498 renal = system: A498 renal
SNB-19 CNS = system: SNB-19 CNS
CCRF-CEM leukemia = system: CCRF-CEM leukemia
NCI-H522 lung = system: NCI-H522 lung
HCC-2998 colon = system: HCC-2998 colon
DU-145 prostate = system: DU-145 prostate
EKVX NSCLC = system: EKVX NSCLC
A549 NSCLC = system: A549 NSCLC
786-0 renal = system: 786-0 renal
UO-31 renal = system: UO-31 renal
OVCAR-3 ovarian = system: OVCAR-3 ovarian
NCI-H23 lung = system: NCI-H23 lung
SK-MEL-2 melanoma = system: SK-MEL-2 melanoma
U251 CNS = system: U251 CNS
ACHN renal = system: ACHN renal
SK-MEL-28 melanoma = system: SK-MEL-28 melanoma
UACC-257 melanoma = system: UACC-257 melanoma
HOP-62 NSCLC = system: HOP-62 NSCLC
RXF 393 renal = system: RXF 393 renal
HS 578T breast = system: HS 578T breast
NCI-H226 lung = system: NCI-H226 lung
SF-268 CNS = system: SF-268 CNS
SR leukemia = system: SR leukemia
CAKI-1 renal = system: CAKI-1 renal
UACC-62 melanoma = system: UACC-62 melanoma
OVCAR-8 ovarian = system: OVCAR-8 ovarian
IGROV1 ovarian = system: IGROV1 ovarian
HCT-116 colon = system: HCT-116 colon
TK-10 renal = system: TK-10 renal
SF-295 CNS = system: SF-295 CNS
NCI-H460 lung = system: NCI-H460 lung
M14 melanoma = system: M14 melanoma
SK-MEL-5 melanoma = system: SK-MEL-5 melanoma
RPMI-8226 leukemia = system: RPMI-8226 leukemia
OVCAR-5 ovarian = system: OVCAR-5 ovarian
MALME-3M melanoma = system: MALME-3M melanoma
K-562 leukemia = system: K-562 leukemia
SW-620 colon = system: SW-620 colon
MDA-N = system: MDA-N
MDA-MB-231 breast = system: MDA-MB-231 breast
BT-549 breast = system: BT-549 breast
LOX IMVI melanoma = system: LOX IMVI melanoma
SN12C renal = system: SN12C renal
T-47D breast = system: T-47D breast
NCI/ADR-RES ovarian = system: NCI/ADR-RES ovarian
MOLT-4 leukemia = system: MOLT-4 leukemia
PC-3 prostate = system: PC-3 prostate
SF-539 CNS = system: SF-539 CNS
HL-60(TB) leukemia = system: HL-60(TB) leukemia
MCF7 breast = system: MCF7 breast
COLO 205 colon = system: COLO 205 colon
SK-OV-3 ovarian = system: SK-OV-3 ovarian

Measured: TGI

NC(=O)NC(CC(=O)O)C(=O)O (centres undefined)
> 100 µM: HCT-15 colon | KM12 colon | SNB-75 CNS | OVCAR-4 ovarian | MDA-MB-435 | HT29 colon | HOP-92 NSCLC | A498 renal | SNB-19 CNS | CCRF-CEM leukemia | NCI-H522 lung | HCC-2998 colon | DU-145 prostate | EKVX NSCLC | A549 NSCLC | 786-0 renal | UO-31 renal | OVCAR-3 ovarian | NCI-H23 lung | SK-MEL-2 melanoma | U251 CNS | ACHN renal | SK-MEL-28 melanoma | UACC-257 melanoma | HOP-62 NSCLC | RXF 393 renal | HS 578T breast | NCI-H226 lung | SF-268 CNS | SR leukemia | CAKI-1 renal | UACC-62 melanoma | OVCAR-8 ovarian | IGROV1 ovarian | HCT-116 colon | TK-10 renal | SF-295 CNS | NCI-H460 lung | M14 melanoma | SK-MEL-5 melanoma | RPMI-8226 leukemia | OVCAR-5 ovarian | MALME-3M melanoma | K-562 leukemia | SW-620 colon | MDA-N | MDA-MB-231 breast | BT-549 breast | LOX IMVI melanoma | SN12C renal | T-47D breast | NCI/ADR-RES ovarian | MOLT-4 leukemia | PC-3 prostate

CC1(C)CC(=O)C(CC(C(=O)C(=O)Nc2cc(C(F)(F)F)ccc2Cl)C(=O)c2ccco2)C(=O)C1 (centres undefined)
> 100 µM: HCT-15 colon | KM12 colon | OVCAR-4 ovarian | MDA-MB-435 | SF-539 CNS | HT29 colon | HOP-92 NSCLC | A498 renal | SNB-19 CNS | CCRF-CEM leukemia | NCI-H522 lung | HCC-2998 colon | DU-145 prostate | EKVX NSCLC | A549 NSCLC | 786-0 renal | UO-31 renal | OVCAR-3 ovarian | NCI-H23 lung | SK-MEL-2 melanoma | U251 CNS | ACHN renal | HL-60(TB) leukemia | SK-MEL-28 melanoma | UACC-257 melanoma | MCF7 breast | HS 578T breast | NCI-H226 lung | SF-268 CNS | CAKI-1 renal | UACC-62 melanoma | OVCAR-8 ovarian | IGROV1 ovarian | HCT-116 colon | TK-10 renal | SF-295 CNS | NCI-H460 lung | M14 melanoma | SK-MEL-5 melanoma | RPMI-8226 leukemia | OVCAR-5 ovarian | MALME-3M melanoma | K-562 leukemia | COLO 205 colon | SW-620 colon | MDA-N | MDA-MB-231 breast | BT-549 breast | LOX IMVI melanoma | SN12C renal | T-47D breast | NCI/ADR-RES ovarian | MOLT-4 leukemia | SK-OV-3 ovarian | PC-3 prostate
